# Measurements as given in patent US20200085742A1, “NANOSCALE CARRIERS FOR THE DELIVERY OR CO-DELIVERY OF CHEMOTHERAPEUTICS, NUCLEIC ACIDS AND PHOTOSENSITIZERS” (The University of Chicago, priority 2013, published 2020).
# Read-outs that look alike come from different tables or passages of the source.
# Tests used:
# Format in all cases: cell-based, human
# A2780 cells [1] = assay: In vitro cytotoxicity, MTS assay; settings: after a 72 h incubation, read-out: Cisplatin IC50
# Description: (§1) ES-2, OVCAR-3, SKOV-3, A2780, and A2780/CDDP cells were seeded at 5000 cells per well in 96-well plates and further cultured for 24 h. The culture media were replaced by 100 μL of fresh culture media containing 10% FBS. Cisplatin solution, NCP-1, NCP-1/siRNA containing pooled siRNAs, NCP-1/siRNA containing single siRNA, and Zn control/siRNA containing pooled siRNAs were added to the cells at different cisplatin or siRNA dose. Following incubation for 24 h, the cell viability was determined by (3-(4,5-dimethylthiazol-2-yl)-5-(3-carboxymethoxyphenyl)-2-(4-sulfophenyl)-2H-tetrazolium) (MTS) assay (Promega Corporation, Madison, Wis., United States of America) according to the manufacturer's instructions. […] The cytotoxicity of Zn control/siRNAs at the siRNA doses corresponding to cisplatin IC50 values was also evaluated.
# A2780/CDDP cells = assay: In vitro cytotoxicity, MTS assay; settings: after a 72 h incubation, read-out: Cisplatin IC50
# Description: as §1
# ES-2 cells = assay: In vitro cytotoxicity, MTS assay; settings: after a 72 h incubation, read-out: Cisplatin IC50
# Description: as §1
# OVCAR-3 cells = assay: In vitro cytotoxicity, MTS assay; settings: after a 72 h incubation, read-out: Cisplatin IC50
# Description: as §1
# SKOV-3 cells [2] = assay: In vitro cytotoxicity, MTS assay; settings: after a 72 h incubation, read-out: Cisplatin IC50
# Description: as §1
# SKOV-3 cells [3] = assay: Cytotoxicity of UiO formulations, MTS assay; settings: read-out: cisplatin IC50
# Description: To examine whether the efficient and simultaneous knockdown of three MDR-relevant genes including survivin, Bcl-2, and P-gp could effectively reverse the cisplatin resistance in ovarian cancer cells, the cytotoxicity of free cisplatin, UiO-Cis, and siRNA/UiO-Cis was assessed by 3-(4,5-dimethylthiazol-2-yl)-5-(3-carboxymethoxy-phenyl)-2-(4-sulfophenyl)-2H-tetrazolium (MTS) assay.
# [4] = test system: cisplatin-resistant ovarian cancer cells; assay: DNA ladder and Annexin V conjugate staining (UiO)
# Description: Annexin V conjugate staining provided further evidence to the apoptosis induced by siRNA/UiO-Cis. siRNA loaded in the NMOFs were efficiently internalized into the cytoplasm after a 24-h incubation to trigger MDR-relevant gene silencing.
# SQ20B cells [5] = assay: Time-dependent cellular uptake (ICP-MS, fluorimetry); settings: cisplatin dose 5 μM
# Description: The cellular uptake of NCP-1 particles in SQ20B cells was quantified by ICP-MS. […] The cells were centrifuged at 3,000 rpm for 5 min and the cell pellet was digested with 500 μL of concentrated nitric acid. […] Results were expressed as the amount of cisplatin (ng) per 10^5 cells.
# SQ20B cells [6] = assay: Efflux of cisplatin and pyrolipid; settings: after 4-h uptake
# Description: The efflux of cisplatin and pyrolipid in SQ20B cells was quantified as follows. SQ20B cells were seeded on 6-well plates at 5×10^5 cells/well and incubated for 24 h. […] After incubating for 4 h, the culture medium was discarded and the cells were washed with PBS three times. […] Results were expressed as the percent of the amount of cisplatin or pyrolipid being effluxed compared to the 4-h cellular uptake amount. In order to understand the cellular uptake dynamics of NCP-1-pyrolipid, the efflux of cisplatin and pyrolipid in different formulations was determined. […] The cisplatin or pyrolipid amounts detected in the culture medium were compared with the 4-h uptake amounts to give the percent efflux (Table 9).
# HNSCC135 cells = assay: Cytotoxicity with or without irradiation, MTS assay; settings: read-out: Cisplatin IC50
# Description: (§2) The cells were seeded on 96-well plates at 2500 cells/well. […] After a 24-h incubation, the cells were irradiated with LED light (670 nm) at 60 mW/cm^2 for 15 min (equals to 54 J/cm^2). The cells without irradiation treatment served as controls. The cells were further incubated for 48 h. The cell viability was detected by (3-(4,5-dimethylthiazol-2-yl)-5-(3-carboxymethoxyphenyl)-2-(4-sulfophenyl)-2H-tetrazolium) (MTS) assay (Promega, Madison, Wis., United States of America) and the IC50 values were calculated accordingly. […] These findings were further supported by the flow cytometry results (Table 11).
# JSQ3 cells = assay: as above; settings: read-out: Cisplatin IC50
# Description: as §2
# SCC61 cells = assay: as above; settings: read-out: Cisplatin IC50
# Description: as §2
# SQ20B cells [7] = assay: as above; settings: read-out: Cisplatin IC50
# Description: as §2
# SQ20B cells [8] = assay: Flow cytometry, apoptosis and necrosis (Annexin V/PI)
# Description: SQ20B cells were seeded at 1×10^6 cells per well in 6-well plates and further cultured for 24 h. […] Cells incubated with PBS served as control. After a 24 h […] incubation, the cells were irradiated with light emitting diode (LED) light (670 nm) at 60 mW/cm^2 for 15 min (equals to 54 J/cm^2). Following a further incubation of 48 h, the floating and adherent cells were collected and stained with Alexa Fluor 488 Annexin V/dead cell apoptosis kit with Alexa Fluor 488 annexin V and PI (Invitrogen, Carlsbad, Calif., United States of America) according to manufacturer's instructions. The apoptosis and necrosis was examined on a flow cytometer (LSRII Blue, Becton, Dickinson, and Company, Franklin Lakes, N.J., United States of America).
# H460 cells [9] = assay: Cytotoxicity of Pten and Pten-NCP
# A2780 cells [10] = assay: Cytotoxicity of cisplatin/GMP NCP, MTS assay
# Description: (§3) The cytotoxicity of NCP particles carrying cisplatin, GMP, and thiol siRNAs targeting survivin, Bcl-2, and ERCC-1 were evaluated against human ovarian cancer cells A2780, A2780/CDDP, SKOV-3 and human non-small cell lung cancer cell H460 by MTS assay.
# A2780R cells = assay: Cytotoxicity of cisplatin/GMP NCP, MTS assay
# Description: as §3
# SKOV-3 cells [11] = assay: Cytotoxicity of cisplatin/GMP NCP, MTS assay
# H460 cells [12] = assay: Cytotoxicity of cisplatin/GMP NCP, MTS assay
# [13] = read-out: IC50 as GMP concentration (numbers in parenthesis)
molecule,measurement,setting,value
"N.N.[Cl][Pt][Cl] [Free cisplatin, cisplatin]",IC50,A2780 cells [1],4.4 ± 1 µM
same,IC50,A2780/CDDP cells,24 ± 3.1 µM
same,IC50,ES-2 cells,37.6 ± 1.9 µM
same,IC50,OVCAR-3 cells,44.4 ± 3.2 µM
same,IC50,SKOV-3 cells [2],59.5 ± 1.2 µM
same,IC50,SKOV-3 cells [3],48.5 ± 4.3 µM
same,DNA fragmentation (DNA ladder),[4],No DNA fragmentation was detectable
same,Cisplatin uptake,SQ20B cells [5]; 1 h,51.7 ± 4.5 ng/10^5 cells
same,Cisplatin uptake,SQ20B cells [5]; 2 h,43.5 ± 1.4 ng/10^5 cells
same,Cisplatin uptake,SQ20B cells [5]; 4 h,38.1 ± 0.8 ng/10^5 cells
same,Cisplatin uptake,SQ20B cells [5]; 24 h,38.5 ± 1.3 ng/10^5 cells
same,Cisplatin efflux,SQ20B cells [6]; 1 h,12.0 ± 1.5%
same,Cisplatin efflux,SQ20B cells [6]; 2 h,13.5 ± 0.2%
same,Cisplatin efflux,SQ20B cells [6]; 4 h,18.2 ± 5.1%
same,Cisplatin efflux,SQ20B cells [6]; 24 h,20.0 ± 5.4%
same,Cisplatin efflux,"SQ20B cells [6]; 24 h, listed as free cisplatin",20.0%
same,IC50,HNSCC135 cells; irradiation No,3.37 ± 0.73 µM
same,IC50,"HNSCC135 cells; irradiation Yes (670 nm, 54 J/cm^2)",2.65 ± 0.13 µM
same,IC50,JSQ3 cells; irradiation No,11.3 ± 1.2 µM
same,IC50,JSQ3 cells; irradiation Yes,13.3 ± 2.03 µM
same,IC50,SCC61 cells; irradiation No,3.46 ± 0.08 µM
same,IC50,SCC61 cells; irradiation Yes,3.69 ± 0.28 µM
same,IC50,SQ20B cells [7]; irradiation No,3.92 ± 0.15 µM
same,IC50,SQ20B cells [7]; irradiation Yes,4.18 ± 0.11 µM
same,Necrosis %,SQ20B cells [8]; w/irradiation,0.2%
same,Apoptosis %,"SQ20B cells [8]; w/irradiation, cisplatin 5 μM or equivalent pyrolipid",38.1%
same,Apoptosis %,SQ20B cells [8]; w/o irradiation,37.9%
same,Necrosis %,SQ20B cells [8]; w/o irradiation,0.2%
same,IC50,H460 cells [9],4.8 µM
same,IC50,A2780 cells [10],0.764 ± 0.183 µM
same,IC50,A2780R cells; read-out: Cisplatin IC50,13.6 ± 3.2 µM
same,IC50,SKOV-3 cells [11]; read-out: Cisplatin IC50,4.6 ± 0.7 µM
same,IC50,H460 cells [12]; read-out: Cisplatin IC50,4.6 ± 0.6 µM
gemcitabine monophosphate [GMP],IC50,A2780R cells; [13],0.12 µM
same,IC50,SKOV-3 cells [11]; [13],2.8 µM
same,IC50,H460 cells [12]; [13],3.3 µM
